Data: PubChem BioAssay (NCI)
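Grown in 96-well plates, cells were treated for 48 hours with each compound at five concentrations. Insufficient inhibition: endpoint recorded as highest concentration tested. TGI: total growth inhibition.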

Key:
Test in all cases: NCI anticancer screen, dose series, 48 h
K-562 leukemia = test system: K-562 leukemia
786-0 renal = test system: 786-0 renal
IGROV1 ovarian = test system: IGROV1 ovarian
HOP-92 NSCLC = test system: HOP-92 NSCLC
HOP-62 NSCLC = test system: HOP-62 NSCLC
SK-MEL-2 melanoma = test system: SK-MEL-2 melanoma
PC-3 prostate = test system: PC-3 prostate
NCI-H522 lung = test system: NCI-H522 lung
MOLT-4 leukemia = test system: MOLT-4 leukemia
NCI-H226 lung = test system: NCI-H226 lung

Structure (SMILES)	TGI (K-562 leukemia)	TGI (786-0 renal)	TGI (IGROV1 ovarian)	TGI (HOP-92 NSCLC)	TGI (HOP-62 NSCLC)	TGI (SK-MEL-2 melanoma)	TGI (PC-3 prostate)	TGI (NCI-H522 lung)	TGI (MOLT-4 leukemia)	TGI (NCI-H226 lung)
NC(=O)c1nnsc1NC=O	> 100 µM	> 100 µM	> 100 µM	> 100 µM	> 100 µM	> 100 µM	> 100 µM	> 100 µM	> 100 µM	> 100 µM
O=c1cc(N=Nc2ccc(Cl)cc2)[nH]c(=O)[nH]1	> 31.6 µM	3.21 µM	8.92 µM	5.48 µM	30.1 µM	21.5 µM	11.7 µM	3.63 µM	7.5 µM	20.4 µM
CC12CCC(C(Nc3ccccn3)C1=O)C2(C)C (stereo not given)	> 100 µM	> 100 µM	> 100 µM	> 100 µM	> 100 µM	> 100 µM	> 100 µM	> 100 µM	> 100 µM	> 100 µM
CC1CCc2sc3[nH]c(=S)n(-c4ccccc4)c(=O)c3c2C1 (stereo not given)	> 100 µM	> 100 µM	> 100 µM	> 100 µM	> 100 µM	93.7 µM	> 100 µM	> 100 µM	> 100 µM	> 100 µM
COC(=O)c1cc(C(=CCC[C@H]2CC[C@@]3(C)C(CCC4C3CC[C@@]3(C)C4CC[C@@H]3C(C)CCCC(C)C)C2)c2cc(Cl)c(OC(=O)c3ccccc3)c(C(=O)OC)c2)cc(Cl)c1OC(=O)c1ccccc1 (stereo not given in full)	> 10 µM	> 10 µM	> 10 µM	> 10 µM	> 10 µM	> 10 µM	> 10 µM	> 10 µM	> 10 µM	> 10 µM
CC1(C)CCC(=O)NC1CC(=O)CC1NC(=O)CCC1(C)C (stereo not given)	> 100 µM	> 100 µM	> 100 µM	> 100 µM	> 100 µM	> 100 µM	> 100 µM	> 100 µM	> 100 µM	> 100 µM
CCCCCCCCCCCCCCCCCCOCC(COP(=O)([O-])OCC[N+](C)(C)C)OC (stereo not given)	75.2 µM	> 71.7 µM	18.7 µM	25.4 µM	> 58.9 µM	54.9 µM	57.2 µM	32.7 µM	29.3 µM	44.7 µM
Cc1ccc(S(=O)(=O)N2CCNCCN(S(=O)(=O)c3ccc(C)cc3)CCN(S(=O)(=O)c3ccc(C)cc3)CC2)cc1	> 100 µM	> 100 µM	> 100 µM	> 100 µM	> 100 µM	> 100 µM	> 100 µM	> 100 µM	> 100 µM	> 100 µM
Cc1nnc(-n2c(O)cc(=O)n(-c3ccccc3)c2=S)nc1/C=C/c1ccc(N(C)C)cc1	49.9 µM	> 59.4 µM	34.2 µM	> 71.9 µM	> 100 µM	41.8 µM	> 46.2 µM	8.33 µM	> 100 µM	> 100 µM
c1ccc2c(c1)CC1COc3ccccc3C1O2 (stereo not given)	> 100 µM	> 100 µM	> 100 µM	> 100 µM	> 100 µM	> 100 µM	> 100 µM	> 100 µM	> 100 µM	> 100 µM
NC(=O)CC(N=C1C(=O)OC(C(O)CO)C1=NC(CC(N)=O)C(=O)O)C(=O)O (stereo not given)	> 100 µM	> 100 µM	> 100 µM	> 100 µM	> 100 µM	> 100 µM	> 100 µM	> 100 µM	> 100 µM	> 100 µM
Nc1ccc(Oc2ccc(C34CC5CC6C3CC3CC4C(C5)C6(c4ccc(Oc5ccc(N)c(O)c5)cc4)C3)cc2)cc1O	> 54.8 µM	14.9 µM	22.6 µM	8.41 µM	18.3 µM	39 µM	11.9 µM	5.73 µM	12.9 µM	14.3 µM
Cn1c(=O)c2c(nc(Nc3ccc(Cl)cc3)n3c(=O)n(-c4ccccc4)c(=O)n23)n(C)c1=O	> 100 µM	> 100 µM	> 100 µM	> 100 µM	> 100 µM	> 100 µM	> 100 µM	> 100 µM	> 100 µM	> 100 µM
O=C1ON=C2C3CC4CC12CC1(C3)C(=O)ON=C41	> 100 µM	> 100 µM	> 100 µM	> 100 µM	> 100 µM	> 100 µM	> 100 µM	> 100 µM	> 100 µM	> 100 µM
N=c1c2c(=S)n(-c3ccccc3)c(=S)n(-c3ccccc3)c2nc(SCCN2CCOCC2)n1-c1ccccc1	4.18 µM	3.14 µM	3.36 µM	4.12 µM	4.96 µM	8.17 µM	3.35 µM	3.16 µM	3.75 µM	15.5 µM
